From US20200190593A1, “SPLICEOSOME MUTATIONS AND USES THEREOF” (EISAI R&D MANAGEMENT CO., LTD., priority 2017, published 2020)
Entries after “also recorded” stand apart in the source; their conditions may differ.

Columns and labels:
[1] = tested on: global splicing in PHF5A Y36C expressing HCT116 cells; assay: Whole transcriptome RNA-seq differential splicing, PHF5A Y36C cells; type: cell-based
Experimental: Either PHF5A WT or Y36C mutant overexpressing cells were treated with either DMSO or E7107 (100 nM and 10 μM) for 6 hours in quintuplicate before lysed in TRIzol reagent (Thermo Fisher). After phase separation, top aqueous phase was further processed using MagMAX™-96 Total RNA Isolation Kit (Thermo Fisher, AM1830) for RNA extraction. RNA quality was assessed using Agilent tapestation with RNA screen tape. RNA-seq libraries were prepared by Beijing Genomic Institute (BGI) and sequenced on Illumina Hiseq 4000 for 6G clean reads per sample. RNA-seq reads were aligned to hg19 by STAR (Dobin et al., Bioinformatics 29, 15-21 (2013)) and raw junction counts generated by STAR were used for calculating percent spliced in (PSI) to quantify splice junction usage relative to all other splice junctions that share the same splice site as described before (Darman et al., Cell reports 13, 1033-45 (2015)). Differential PSI were assessed between a pair of sample groups using moderated t-test defined in limma package (Smyth, Statistical applications in genetics and molecular biology 3, Article3 (2004)) in Bioconductor. The statistical p-values were corrected using the Benjamini-Hochberg procedure and q-values less than or equal to 0.05 were considered statistically significant. […]

SF3B1 R1074H = target: T1, SF3B1 R1074H (Homo sapiens, UniProt O75533+Q7RTV0, R1074H); conditions: Yokoi et al. 2011; cited from earlier work
T1 construct: endogenous in cells; WiDr clones in the cited Yokoi et al. work

[2] = tested on: MCL1 splicing (ES/IR events) in PHF5A Y36C expressing HCT116 cells; assay: Taqman gene expression analysis of MCL1 isoforms, PHF5A Y36C cells; type: cell-based; conditions: PHF5A-Y36C cells compared to WT, increasing dosage
Experimental: (§1) 8000 cells of indicated genotypes were seeded in each well of 96-well plate and allowed to settle overnight. On the second day, 11 points serial dilution (1:4 fold dilution across) of indicated compound with a top dosage of 10 μM final was added to the culturing medium. 4 hour post compound addition, culturing medium was decanted and washed once with PBS. PBS was then decanted completely from the plate and Lysis buffer (plus DNase I) from TaqMan Gene Expression Cells-to-CT Kit (Thermo Fisher, cat # AM1729) was added according to the manual. After 5 mins incubation at room temperature on the shaker, stop solution was added to each well and incubated for 2 min. Reverse transcription was set up immediately using the Cells-to-CT Kit and cDNAs were used for quantitative real time PCR analysis using Viia7 (Thermo Fisher). Each reaction is multiplexed with a FAM labelled probe targeting specific target gene splicing isoforms and a VIC labelled probe targeted 18S rRNA as loading control. Therefore, the FAM Ct value in each well was first normalized to the VIC Ct value in the same well before further normalization to the FAM/VIC ratio of DMSO treated control samples to calculate fold change over DMSO. Graphs were generated using Graphpad Prism 6, n=2. Taqman gene expression probes used in these assays are: […]

HCT116 cells = assay: CellTiter-Glo growth inhibition, parental HCT116; type: cell-based; conditions: in HCT116
Experimental: Parental HCT116 cells were obtained from ATCC and cultured in RPMI 1640 medium (Thermo Fisher, GIBCO #11875) supplemented with 10% FBS. Parental Panc0504 cells were obtained from ATCC and cultured in GIBCO RPMI 1640 medium (Thermo Fisher, GIBCO #11875) supplemented with glucose (to 4.5 g/L final), HEPES (10 mM final), sodium pyruvate (1 mM final), human insulin (10 μg/ml final) and 15% FBS. Cell line authentication was achieved by genetic profiling using polymorphic short tandem repeat (STR) loci (ATCC). All cell lines were free of mycoplasma contamination. Lenti-X-293T cells (Clontech Laboratories, Inc. Cat #632180), a cell line for lentiviral packaging, was maintained in Dulbecco's modified Eagle's medium (Thermo Fisher, GIBCO #11965) containing 10% fetal bovine serum and 4 mM L-glutamine. WT PHF5A cDNA was obtained from Genecopoeia and cloned into a pDONR 221 vector (Thermo Fisher). Sequence verified positive clones were cloned into pLenti6.3N5 vector (Thermo Fisher) through LR recombination. Mutagenesis of Y36 and V37 were carried using Agilent Quickchange II kit following manufacturer's recommendation using the PHF5A WT plasmid. All primers used for mutagenesis were designed used the QuikChange Primer Design tool by Agilent. Verified positive clones of PHF5A Y36 or V37 variants were used for lentivirus production using X293T cells. Parental HCT116 cells and Panc0504 cells were then infected with virus containing medium and selected with Blasticidin S (Thermo Fisher) at 10 μg/ml for one week. Engineered cell lines were maintained in the same medium without antibiotics. The following primary antibodies were used at 1:1000 dilution for western blot analysis in LI-COR buffer (LI-COR): α-SF3B1 mouse monoclonal antibody (MBL, D221-3), α-SF3B3 rabbit polyclonal antibody (Protein Tech, 14577-1-AP), α-SF3B4 goat polyclonal antibody (Santa Cruz, 14276), α-SF3B6/p14 rabbit polyclonal antibody (Protein Tech, 12379-1-AP), α-PHF5A rabbit polyclonal antibody (Protein Tech, 15554-1-AP). α-GAPDH rabbit polyclonal antibody (Sigma, G9545) was used at 1:10,000. […]
(§2) For CellTiter-Glo analysis, 500 cells were seeded in each well of a 384-well plate the day before compound addition. […] 72 hours post compound addition; CellTiter-Glo reagent was added to the medium, incubated and assayed on EnVision Multilabel Reader (PerkinElmer). The luminescence value from each treatment sample was normalized to the average value of the respective DMSO control. […] For heatmap summarization of IC50 shifts, IC50 value were extracted from dosage response curves and the fold changes of IC50 values in PHF5A variants expressing lines over that of the WT lines were calculated and plotted using TIBCO Spotfire software. […]

[3] = tested on: MCL1 splicing (ES/IR events) in PHF5A WT expressing HCT116 cells; assay: Taqman gene expression analysis of MCL1 isoforms, PHF5A WT cells; type: cell-based; conditions: 4 hour treatment
Experimental: as §1

[4] = tested on: HCT116 resistant clones carrying SF3B1 (R1074H, V1078A/I) or PHF5A Y36C mutations; assay: CellTiter-Glo growth inhibition profiling of E7107/herboxidiene resistant HCT116 clones; type: cell-based; conditions: 72 hour CellTiter-Glo, HCT116 resistant clones vs parental
Experimental: 2.5 million HCT116 cells were seeded in each 10 cm dish and treated with indicated dosages of splicing modulators for 2 weeks. Compounds were refreshed every 4 days. When needed, confluent dishes were split 1:3 and cells were allowed to recover overnight without splicing modulator treatment after re-seeding. At the end of the compound selection period, surviving individual clones were picked and transferred to 12-well plates. Individual resistant clones were further expanded without splicing modulator treatment and 1 million cells from each clone were pelleted for genomic DNA extraction using the DNeasy Blood & Tissue Kit from Qiagen. Whole exome sequencing (WXS) libraries were generated by Novogene Corporation using Agilent SureSelect Human All Exon V6 kit and sequenced on Illumina HiSeq platform. 12G raw data were gathered for each sample. WXS reads were then aligned to hg19 by BWA-MEM (Shi et al., Nature biotechnology 33, 661-7 (2015)) and somatic mutations were identified with MuTect2 (Schenone et al., Nature chemical biology 9, 232-40 (2013)) through Sentieon pipeline (Wacker et al., Nature chemical biology 8, 235-7 (2012)) by pairing resistant clone with parental cell lines. As the resistant clones for WXS were selected, the allele frequencies for the mutations which are responsible for the resistance should be high. Non-silent mutations (among the H3 curated spliceosome genes) with allele frequency higher than 0.2 were focused on.
For CellTiter-Glo analysis, 500 cells were seeded in each well of a 384-well plate the day before compound addition. An 11 part serial dilution was used starting with a top final dosage of 10 μM for ten additional doses. DMSO percentage was maintained throughout and a DMSO only control was included. 72 hours post compound addition; CellTiter-Glo reagent was added to the medium, incubated and assayed on EnVision Multilabel Reader (PerkinElmer). The luminescence value from each treatment sample was normalized to the average value of the respective DMSO control. The dosage response curve plots were generated using Graphpad Prism 6 and fit using nonlinear regression analysis and the log (inhibitor) vs. response—Variable slope (four parameters). For heatmap summarization of IC50 shifts, IC50 value were extracted from dosage response curves and the fold changes of IC50 values in PHF5A variants expressing lines over that of the WT lines were calculated and plotted using TIBCO Spotfire software. For IC50s greater than the top dosage, the values were arbitrarily set at 10 μM. Unsupervised clustering analysis was performed in TIBCO Spotfire using the following default parameters: Clustering method: UPGMA; Distance measure: Euclidean; Ordering weight: Average value; Normalization: (None); Empty value replacement: Constant value: 0.

[5] = tested on: PHF5A Y36C over-expressing PANC0504 cells; assay: Growth inhibition in PANC0504 cells over-expressing PHF5A Y36C; type: cell-based
Experimental: Parental HCT116 cells were obtained from ATCC and cultured in RPMI 1640 medium (Thermo Fisher, GIBCO #11875) supplemented with 10% FBS. Parental Panc0504 cells were obtained from ATCC and cultured in GIBCO RPMI 1640 medium (Thermo Fisher, GIBCO #11875) supplemented with glucose (to 4.5 g/L final), HEPES (10 mM final), sodium pyruvate (1 mM final), human insulin (10 μg/ml final) and 15% FBS. Cell line authentication was achieved by genetic profiling using polymorphic short tandem repeat (STR) loci (ATCC). All cell lines were free of mycoplasma contamination. […]
as §2

[6] = tested on: global splicing in PHF5A WT expressing HCT116 cells; assay: Whole transcriptome RNA-seq differential splicing, PHF5A WT cells; type: cell-based
Experimental: Either PHF5A WT or Y36C mutant overexpressing cells were treated with either DMSO or E7107 (100 nM and 10 μM) for 6 hours in quintuplicate before lysed in TRIzol reagent (Thermo Fisher). After phase separation, top aqueous phase was further processed using MagMAX™-96 Total RNA Isolation Kit (Thermo Fisher, AM1830) for RNA extraction. RNA quality was assessed using Agilent tapestation with RNA screen tape. RNA-seq libraries were prepared by Beijing Genomic Institute (BGI) and sequenced on Illumina Hiseq 4000 for 6G clean reads per sample. RNA-seq reads were aligned to hg19 by STAR (Dobin et al., Bioinformatics 29, 15-21 (2013)) and raw junction counts generated by STAR were used for calculating percent spliced in (PSI) to quantify splice junction usage relative to all other splice junctions that share the same splice site as described before (Darman et al., Cell reports 13, 1033-45 (2015)). Differential PSI were assessed between a pair of sample groups using moderated t-test defined in limma package (Smyth, Statistical applications in genetics and molecular biology 3, Article3 (2004)) in Bioconductor. The statistical p-values were corrected using the Benjamini-Hochberg procedure and q-values less than or equal to 0.05 were considered statistically significant. Gene IDs associated with significant splicing changes upon E7107 treatment as compared to DMSO in either PHF5A WT or Y36C cells were used for generation of the Venn Diagram using online tool (http://bioinformatics.psb.ugent.be/webtools/Venn/). PHF5A WT or Y36C specific genes identified from the Venn Diagram analysis were then subject to Gene Set Enrichment Analysis (GSEA) (http://software.broadinstitute.org/gsea/msigdb/annotate.jsp) using the Kyoto Encyclopedia of Genes and Genomes (KEGG) pathway database.
The number of reads which cover the splice junction which excludes a given cassette exon (exon skipping reads) were compared with both the number of spliced reads which share its 3′ splice site yet have an alternative 5′ splice site bordering the cassette exon (exon inclusion reads) and the number of reads which cross the exon-intron boundary at that same 3′ splice site (intron retention reads.) These counts were summed and their fractions from the percent spliced in (PSI) for the exon skipping event, the exon inclusion event, and the intron retention event, respectively, at that locus. The PSI for all significant exon skipping events derived from the comparison between 100 nM E7107 treatment in PHF5A Y36C cells and the respective DMSO controls (3883 events) and the PSI for the intron retention junction at the same locus were plotted. For all other treatments, the PSI of the exon skipping junction and the intron retention junction for each locus were plotted in the same order. PSI is averaged over samples in quintuplicate.

| Compound | GI50 (HCT116 cells; Homo sapiens, HCT-116) | dose-dependent induction of MCL1 ES and IR events [3] | resistance conferred by mutations in resistant clones (growth inhibition profiling) [4] | resistant phenotype upon PHF5A Y36C over-expression [5] | other results |
| --- | --- | --- | --- | --- | --- |
| CC[C@H](O)[C@@H](C)[C@H]1O[C@@H]1C[C@@](C)(O)/C=C/C=C(\C)C1OC(=O)C[C@H](O)CC[C@@](C)(O)[C@@H](OC(=O)N2CCN(C3CCCCCC3)CC2)/C=C/[C@@H]1C (stereo partly drawn) [Compound E7107] | 1.5 nM | “earlier” induction of MCL1 ES events than IR events at lower doses | SF3B1-R1074H mutation conferred the most robust resistance | partial resistant phenotype | differential splicing events vs DMSO ([1]; 100 nM E7107): the overall amount of IR events and their average fold change were greatly reduced; also recorded: the number of compound induced exon-skipping (ES) events was increased; MCL1 isoform events in RNA-seq sashimi plots ([1]; E7107 treatment): mainly ES events were observed yielding the MCL1-S form; effect of SF3B1 R1074H substitution on compound activity (SF3B1 R1074H): almost completely abolishes the splicing-modulating and anti-proliferative effects; MCL1-S production (ES events) [2]: enhanced to a higher level; number of introns with induced aberrant splicing ([6]; E7107, FIG. 4A): approximately 20,000; number of the 3883 Y36C related ES junctions showing reduced ES PSI and increased IR PSI in WT cells ([6]; E7107 treated WT vs Y36C cells): 2470; share of Y36C related ES junctions showing reduced ES PSI and increased IR PSI in WT cells ([6]; E7107 treated WT vs Y36C cells): ~64%; differential splicing events vs DMSO ([6]; PHF5A WT cells, 100 nM E7107): intron-retention (IR) events were predominant; MCL1 isoform events in RNA-seq sashimi plots ([6]; PHF5A WT cells, E7107 treatment): IR was the dominant event observed |
| CC(C)C[C@H](NC(=O)[C@H](Cc1ccccc1)NC(=O)c1cnccn1)B(O)O [bortezomib] | – | – | did not affect the cell lines sensitivity | not | – |
| CO[C@H]([C@@H](C)[C@H]1O[C@]1(C)C[C@H](C)/C=C/C=C(\C)[C@H]1O[C@@H](CC(=O)O)CC[C@@H]1C)[C@@H](C)O [herboxidiene] | 7.6 nM | even more pronounced effect | PHF5A-Y36C mutation rendered more resistance | – | – |
| CO[C@]1(C)C[C@@]2(CO2)[C@H](O)[C@@H](/C=C/C(C)=C/C[C@@H]2O[C@H](C)[C@H](NC(=O)/C=C\[C@H](C)OC(C)=O)C[C@@H]2C)O1 [spliceostatin A] | – | – | SF3B1-R1074H mutation also conferred better resistance; also recorded: show resistance to the Y36C clone | – | GI50 (HCT116 cells): 0.76 nM |
| CNC(=O)O[C@@H](C)/C=C\C(=O)N[C@H]1CC[C@@H](C/C=C(C)/C=C/[C@@H]2C[C@]3(CO3)CC(C)(C)O2)CC1 [sudemycin D6] | 149 nM | IR events were not observed | SF3B1-R1074H mutation also conferred better resistance | – | – |
| sudemycin D6 | – | – | show resistance to the Y36C clone | – | – |
